PMC8838850, “Synthesis, Antimicrobial, Anti-Virulence and Anticancer Evaluation of New 5(4H)-Oxazolone-Based Sulfonamides” (Molecules, 2022)
In brackets after ≈: the same amount, converted by molar mass.

What was measured:
[1] = test system: Escherichia coli ATCC 10536; assay: MIC by agar dilution; type: cell-based; details: ATCC10536, 37 °C, 20 h, read-out: Minimum inhibitory concentration (MIC)
Method: (§1) The MICs of the synthesized compound were determined by agar dilution method according to the Clinical Laboratory and Standards Institute Guidelines (CLSI, 2015). Briefly, the tested strains were incubated overnight in tryptic soy broth (TSB) (Oxoid, United Kingdom) and then diluted in Muller–Hinton (MH) broth (Oxoid, United Kingdom) to turbidity approximating to the equivalent of 0.5 McFarland standard. The suspensions were further diluted with sterile saline (1:10) and standardized inoculums (approximately 10^4 CFU per spot) were spotted on the surfaces of MH agar (Oxoid, United Kingdom) plates containing different concentrations of tested compounds and a control plate. The MICs were the lowest concentrations that inhibit growth on the plates after incubation at 37 °C for 20 h.

[2] = test system: Klebsiella pneumoniae ATCC 27736; assay: MIC by agar dilution; type: cell-based; details: ATCC27736, 37 °C, 20 h, read-out: Minimum inhibitory concentration (MIC)
Method: as §1

[3] = test system: Micrococcus spp. ATCC 10240; assay: MIC by agar dilution; type: cell-based; details: ATCC10240, 37 °C, 20 h, read-out: Minimum inhibitory concentration (MIC)
Method: as §1

[4] = test system: Salmonella typhimurium ATCC 14028; assay: MIC by agar dilution; type: cell-based; details: Salmonella enterica, 37 °C, 20 h, read-out: Minimum inhibitory concentration (MIC)
Method: as §1

[5] = test system: Staphylococcus aureus ATCC 6538; assay: MIC by agar dilution; type: cell-based; details: ATCC6538, 37 °C, 20 h, read-out: Minimum inhibitory concentration (MIC)
Method: as §1

[6] = test system: Staphylococcus epidermidis ATCC 12228; assay: MIC by agar dilution; type: cell-based; details: ATCC12228, 37 °C, 20 h, read-out: Minimum inhibitory concentration (MIC)
Method: as §1

[7] = test system: Pseudomonas aeruginosae ATCC 47085; assay: MIC by agar dilution; type: cell-based, Pseudomonas aeruginosa; details: ATCC47085, 37 °C, 20 h, read-out: Minimum inhibitory concentration (MIC)
Method: as §1

[8] = test system: Aspergillus niger ATCC 16404; assay: MIC by agar dilution (antifungal); type: cell-based; details: for MIC: ATCC16404, read-out: Minimum inhibitory concentration (MIC)
Method: as §1

[9] = test system: Candida albicans ATCC 10231; assay: MIC by agar dilution (antifungal); type: cell-based; details: for MIC: Candida albicans, ATCC10231, Candida albicans ATCC 10231, read-out: Minimum inhibitory concentration (MIC)
Method: as §1

BxPC-3 = assay: SRB cellular proliferation assay; type: cell-based, human; details: Homo sapiens, BxPC-3 cells, mean ± SD (n = 3), read-out: IC50
Method: (§2) The pancreatic human cancer cell lines BxPC-3 and Panc-1, the human hepatocellular carcinoma (HepG-2), and the normal immortalized pancreatic cell line HPDE, that were used in this study, were obtained from the American Type Culture Collection (Rockville, USA). Cell lines were cultured and treated with the tested compounds or dimethyl sulfoxide (DMSO) as previously described. Cells were cultivated in DMEM medium (Invitrogen, Carlsbad, CA, USA), supplemented with streptomycin, penicillin and fetal bovine serum (FCS) (Invitrogen, Carlsbad, CA, USA). The sulforhodamine B (SRB) assay was employed to assess the anti-proliferative effects of tested compounds on cancer cells. Cell lines were incubated and regularly treated with DMSO or increasing doses of tested compounds for 48 h. The cells were fixed with 10% trichloroacetic acid and stained with SRB fluorescent dye for 30 min. Then, the bounded SRB dye to cellular proteins was dissolved in 10 mM Tris base after washing excess dye with 1% acetic acid. The absorbance was measured at 510 nm in a reader (Biotek, Winooski, VT, USA).

HepG-2 = assay: SRB cellular proliferation assay; type: cell-based, human; details: Homo sapiens, HepG2, HepG-2 cells, mean ± SD (n = 3), read-out: IC50
Method: as §2

Panc-1 = assay: SRB cellular proliferation assay; type: cell-based, human; details: Homo sapiens, Panc-1 cells, mean ± SD (n = 3), read-out: IC50
Method: as §2

S. aureus ATCC 6538 = assay: Biofilm formation assay (crystal violet, light microscopy); type: cell-based, Staphylococcus aureus; details: sub-MIC, light microscopy image
Method: (§3) Bacterial virulence is regulated via a quorum sensing (QS) system in an inducer/receptor manner. Diminishing bacterial virulence is an advantageous strategy to decrease the development of bacterial resistance. In this direction, anti-virulence and anti-QS activities have been explored in several studies as reviewed. The ability of P. aeruginosa or S. aureus to form biofilms was assayed in the absence or presence of tested compounds at sub-MIC. […] The experiment was conducted in triplicate and a one-way ANOVA test was employed to test the statistical significance using Graphpad Prism 8 software. The results were significant statistically where p values < 0.05. Moreover, microscopic visualization of biofilm under the effect of tested compounds was also performed by light microscopy. Representative images for the inhibitory effects on S. aureus and P. aeruginosa biofilm formation are shown (Figure 3C,D). The microscopic images show a marked reduction in both the thickness of and surface area covered by the biofilms in presence of the tested compound.
(§4) In order to evaluate the ability of the tested compounds to inhibit the biofilm formation, a strong biofilm forming P. aeruginosa ATCC 47,085 [47, 66] and S. aureus ATCC 6538 [67] strains were used. As described earlier, suspensions of tested strains were prepared from overnight cultures in TSB and their optical densities were adjusted to OD600 of 0.4 (1×10^8 CFU/mL). Aliquots of 10 μL of the suspensions were added to 1 mL amounts of fresh TSB with or without sub-MICs of tested compounds. […] The non-adherent cells were removed, the wells were washed with sterile PBS, and left to dry. The attached biofilm forming cells were fixed with methanol for 25 min and stained with 1% crystal violet for 30 min. The excess dye was washed out and the crystal violet staining adhered biofilm forming cells were eluted by glacial acetic acid (33%). The experiment was conducted in triplicate and the absorbance was measured at 590 nm. The absorbances of tested strains treated with different compounds were expressed as mean ± standard error of percentage change from untreated tested strains control. The percentages of biofilm inhibition were calculated employing the following formula: (absorbance of control—absorbance in presence of tested compounds)/absorbance of control.

[10] = test system: P. aeruginosa ATCC 47,085; assay: as above; type: cell-based, Pseudomonas aeruginosa; details: sub-MIC, light microscopy image
Method: as §3, §4

MIC [1] [µg/mL]	MIC [2] [µg/mL]	MIC [3] [µg/mL]	MIC [4] [µg/mL]	MIC [5] [µg/mL]	MIC [6] [µg/mL]	MIC [7] [µg/mL]	MIC [8] [µg/mL]	MIC [9] [µg/mL]	IC50 (BxPC-3) [µg/mL]	IC50 (Panc-1) [µg/mL]	melting point [°C]	Structure (SMILES)	IC50 (HepG-2) [µg/mL]	Biofilm formation, microscopic visualization (S. aureus ATCC 6538)	Biofilm formation, microscopic visualization [10]	Minimum inhibitory concentration (MIC) [8] [µg/mL]	Minimum inhibitory concentration (MIC) ([9]; Candida albicans ATCC 10231) [µg/mL]
> 32	> 32	2 (≈ 4.9 µM)	> 32	2 (≈ 4.9 µM)	2 (≈ 4.9 µM)	> 32	> 32	> 32	21.8 ± 2.98 (≈ 53.4 µM)	16.1 ± 1.82 (≈ 39.5 µM)	191 to 193	Cc1ccc(S(=O)(=O)Nc2ccccc2C2=N/C(=C/c3ccco3)C(=O)O2)cc1 [Compound 9i, (E)-N-(2-(4-(Furan-2-ylmethylene)-5-oxo-4,5-dihydrooxazol-2-yl)phenyl)-4-methylbenzenesulfonamide]	27 ± 5.32 (≈ 66.1 µM)				
4 (≈ 7.87 µM)	16 (≈ 31.5 µM)	2 (≈ 3.93 µM)	16 (≈ 31.5 µM)	4 (≈ 7.87 µM)	2 (≈ 3.93 µM)	32 (≈ 62.9 µM)	> 32	> 32	18.1 ± 3.56 (≈ 35.5 µM)	25.3 ± 1.91 (≈ 49.8 µM)	230 to 232	COc1cc(/C=C2/N=C(c3ccccc3NS(=O)(=O)c3ccc(C)cc3)OC2=O)cc(OC)c1OC [Compound 9d, (E)-4-Methyl-N-(2-(5-oxo-4-(3,4,5-trimethoxybenzylidene)-4,5-dihydrooxazol-2-yl)phenyl)be-nzenesulfonamide]	22.7 ± 2.3 (≈ 44.7 µM)				
4 (≈ 8.36 µM)	8 (≈ 16.7 µM)	4 (≈ 8.36 µM)	8 (≈ 16.7 µM)	8 (≈ 16.7 µM)	4 (≈ 8.36 µM)	16 (≈ 33.4 µM)	8 (≈ 16.7 µM)	4 (≈ 8.36 µM)	21.5 ± 1.08 (≈ 44.9 µM)	15.1 ± 4.13 (≈ 31.6 µM)	220 to 222	COc1ccc(OC)c(/C=C2/N=C(c3ccccc3NS(=O)(=O)c3ccc(C)cc3)OC2=O)c1 [Compound 9c, (E)-N-(2-(4-(2,5-diMethoxybenzylidene)-5-oxo-4,5-dihydrooxazol-2-yl)phenyl)-4-methylbenzenesulfonamide]	19.1 ± 3.23 (≈ 39.9 µM)				
2 (≈ 3.81 µM)	8 (≈ 15.2 µM)	2 (≈ 3.81 µM)	16 (≈ 30.5 µM)	2 (≈ 3.81 µM)	2 (≈ 3.81 µM)	16 (≈ 30.5 µM)	> 32	> 32	25.7 ± 4.89 (≈ 49 µM)	29.3 ± 4.23 (≈ 55.8 µM)	235 to 237	Cc1ccc(S(=O)(=O)Nc2ccccc2C2=N/C(=C/c3ccc(OCc4ccccc4)cc3)C(=O)O2)cc1 [Compound 9g, (E)-N-(2-(4-(4-(Benzyloxy)benzylidene)-5-oxo-4,5-dihydrooxazol-2-yl)phenyl)-4-methylbenzenesulfonamide]	32.5 ± 1.45 (≈ 62 µM)				
> 32	> 32	8 (≈ 18.8 µM)	> 32	16 (≈ 37.7 µM)	8 (≈ 18.8 µM)	> 32	> 32	> 32	21.4 ± 2.15 (≈ 50.5 µM)	16 ± 3.18 (≈ 37.8 µM)	196 to 198	Cc1ccc(S(=O)(=O)Nc2ccccc2C2=N/C(=C/c3cccs3)C(=O)O2)cc1 [Compound 9j, (E)-4-Methyl-N-(2-(5-oxo-4-(thiophen-2-ylmethylene)-4,5-dihydrooxazol-2-yl)phenyl)benzenesulfonamide]	25.54 ± 0.144 (≈ 60.2 µM)				

Further lines, the molecule ahead of its results:

Structure (SMILES)	MIC [1] [µg/mL]	MIC [2] [µg/mL]	MIC [3] [µg/mL]	MIC [4] [µg/mL]	MIC [5] [µg/mL]	MIC [6] [µg/mL]	MIC [7] [µg/mL]	MIC [8] [µg/mL]	MIC [9] [µg/mL]	IC50 (BxPC-3) [µg/mL]	IC50 (Panc-1) [µg/mL]	melting point [°C]	IC50 (HepG-2) [µg/mL]	Biofilm formation, microscopic visualization (S. aureus ATCC 6538)	Biofilm formation, microscopic visualization [10]	Minimum inhibitory concentration (MIC) [8] [µg/mL]	Minimum inhibitory concentration (MIC) ([9]; Candida albicans ATCC 10231) [µg/mL]
CC1(C)S[C@@H]2[C@H](NC(=O)[C@H](N)c3ccc(O)cc3)C(=O)N2[C@H]1C(=O)O [Amoxycillin, reference compound]	0.5 (≈ 1.37 µM)	1 (≈ 2.74 µM)	0.25 (≈ 0.684 µM)	1 (≈ 2.74 µM)	0.5 (≈ 1.37 µM)	0.5 (≈ 1.37 µM)	2 (≈ 5.47 µM)										
Cc1cc(NS(=O)(=O)c2ccc(N)cc2)no1 [Sulphamethoxazole, reference compound]	1 (≈ 3.95 µM)	2 (≈ 7.9 µM)	1 (≈ 3.95 µM)	2 (≈ 7.9 µM)	2 (≈ 7.9 µM)	2 (≈ 7.9 µM)	4 (≈ 15.8 µM)										
CO/N=C(\C(=O)N[C@@H]1C(=O)N2C(C(=O)O)=C(COC(C)=O)CS[C@H]12)c1csc(N)n1 [Cefotaxime, reference compound]	0.125 (≈ 0.274 µM)	0.5 (≈ 1.1 µM)	0.25 (≈ 0.549 µM)	1 (≈ 2.2 µM)	0.5 (≈ 1.1 µM)	0.25 (≈ 0.549 µM)	1 (≈ 2.2 µM)										
Cc1ccc(S(=O)(=O)Nc2ccccc2C2=N/C(=C/c3ccc(Cl)cc3)C(=O)O2)cc1 [Compound 9e, (E)-N-(2-(4-(4-Chlorobenzylidene)-5-oxo-4,5-dihydrooxazol-2-yl)phenyl)-4-methylbenzenesulfonamide]	4 (≈ 8.83 µM)	2 (≈ 4.42 µM)	2 (≈ 4.42 µM)	4 (≈ 8.83 µM)	2 (≈ 4.42 µM)	2 (≈ 4.42 µM)	8 (≈ 17.7 µM)	16 (≈ 35.3 µM)	8 (≈ 17.7 µM)	13.3 ± 1.57 (≈ 29.3 µM)	12.2 ± 1.29 (≈ 26.8 µM)	234 to 236	15 ± 2.89 (≈ 33.2 µM)	markedly reduced	markedly reduced		
C[C@@H]1[C@H](O)[C@@H](C)/C=C/C=C/CC/C=C/C=C/C=C/C=C/C(O[C@H]2O[C@H](C)[C@@H](O)[C@H](N)[C@@H]2O)CC2O[C@](O)(CC(O)C(O)CCC(O)CC(O)CC(O)CC(=O)O[C@H]1C)CC(O)C2C(=O)O (stereo partly shown) [Nystatin, reference compound]																4 (≈ 4.32 µM)	4 (≈ 4.32 µM)
COc1cccc2c1C(=O)c1c(O)c3c(c(O)c1C2=O)C[C@@](O)(C(=O)CO)C[C@@H]3O[C@H]1C[C@H](N)[C@H](O)[C@H](C)O1 [Doxorubicin, reference compound]										7.31 ± 1.12 (≈ 13.4 µM)	6.9 ± 0.93 (≈ 12.7 µM)		5.11 ± 0.98 (≈ 9.4 µM)				
